Like-named read-outs stand apart in the source and are kept apart here. Blank lines part the entries; values can stand above or below the molecule they belong to.
What was measured:
Nude Mouse Skin [1] = experiment: In vivo skin recovery following papain treatment: percent urinary recovery 7 days after papain (Example 1B); design: species or system congenitally athymic nude mice
Protocol: Experiments were conducted to measure the time required for papain-treated mice to return to normal levels of absorption. These experiments were conducted as described in Example 1A, except that following the removal of papain from the mouse's skin, the mice were maintained separately in metabolism cages for varying periods of time prior to the application of the labeled model compounds. After various time intervals, 150 μl of radiolabeled chemicals were applied separately on the 1 cm^2 marked areas on the backs of the mice, where papain had previously been applied. The mice were then kept in separate metabolism cages and at time intervals of 17, 41, and 65 hours, urine was collected and counted using a scintillation counter.

[2] = tested on: Papain-Treated Athymic Nude Mice Skin; experiment: In vitro permeation through excised papain-treated athymic nude mouse skin, Franz-type diffusion cells (Example 2); format: in vitro ADME, congenitally athymic nude mice
Protocol: Because of some complications encountered during studies utilizing papain treatment by in vivo method (e.g. extended excretion due to storage in various body compartments, delayed response times, etc.) it was decided that additional studies should be conducted wherein the mouse skin was allowed to recover in situ, then excised after various time intervals and evaluated by in vitro permeation methods.
These experiments were conducted by preparing, applying, and occluding papain solutions onto the backs of congenitally athymic nude mice in the same manner as described in Example 1A. At the end of the 24-hour papain treatment, the skin was again cleansed of excess solution. Skin was then excised from part of the animals. The remainder of the animals were housed individually in regular cages for various periods of time (24 hours and 48 hours), after which the treated areas were excised. Immediately following excision of the treated areas, the skins were mounted over Franz-Type, Single-Compartment Diffusion Cells. Four hundred μl of saturated solutions of radiolabeled citric acid, TEAB, glucose, and hydrocortisone were applied, individually, to the exposed surface of the mounted skins on the donor chamber. Saturated solutions of each of these substances were used in order to ensure maximum availability of labeled substances. At varying time intervals, 100 μl samples were removed from the receiver chambers for scintillation counting. All experiments were conducted at 25° C.

skin = experiment: Pretreatment of skin samples with papain: drug penetration, skin damage and activation
Protocol: Whatever the enzyme or enzymes selected, each is typically admixed with a liquid, such as water or ethanol to form an enzyme preparation. The concentration of enzymes(s) in liquid will be of a sufficient quantity to increase the skin's permeability to selected drugs over a predetermined time period. […] Concentrations of papain in water will generally be greater than about 0.019 milligrams/milliliter (mg/ml). Preferred concentrations of papain in water will be less than about 0.093 mg/ml.
For example, papain from Sigma Chemical may be activated with the chelating agent ethylenediaminetetraacetic acid ("EDTA"). […] Amounts of EDTA in a papain enzyme preparation will vary from 2 mg/ml to about 20 mg/ml. The amino acid cysteine can also serve as an activating agent.

Hairless mouse skin = details: papain 0.093 mg/ml, pH 7.4, 24 hours pretreatment
Protocol: Hairless mouse skin was pretreated with papain at a concentration of 0.093 mg/ml at pH 7.4 for 24 hours.

mouse skin [3] = tested on: mouse skin
From the text: In this experiment, varying amounts of Sigma papain, activated with cysteine and EDTA, were used.

[4] = Effect of pH on drug penetration through hairless mouse skin pretreated with Sigma papain (Example 6B); format: in vitro ADME; design: E: unit not given here; details: mouse, read-out: P (permeability)
Protocol: (§1) B. Effect of pH on drug penetration through hairless mouse skin pretreated with Sigma papain of concentration 0.093 mg/ml for 24 hours

[5] = tested on: hairless mouse skin pretreated with Sigma papain; experiment: as above; format: in vitro ADME; design: E: unit not given here; details: for E: Sigma papain 0.093 mg/ml for 24 hours
Protocol: as §1

Nude Mouse Skin [6] = experiment: Percent urinary recovery of radiolabeled chemicals and protein through nude mouse skin immediately following papain treatment, and controls (Example 1A)
Protocol: Various anionic, cationic, and nonionic chemicals were utilized as model compounds to determine the influence of proteolytic enzymes of the transdermal penetration of these substances. […] Additional studies were performed using ^14 -C-labeled albumin, lysozyme, and insulin to determine the ability of the proteolytic enzymes to enhance the percutaneous absorption of larger molecules.
Two hundred μl of this solution was applied on to 1 cm^2 areas on the back of congenitally athymic nude mice. The 1 cm^2 areas were covered with folded gauze pads to absorb the excess papain solution, then the areas were occluded with a transparent dressing (Bioclusive Tape) and an adhesive tape. Each mouse was individually housed in separate cages for 24 hours. At the end of this time, residual papain on the surface of the mouse's skin was removed by washing. After cleansing the skin, 150 μl of radiolabeled material was applied separately on each marked area of mouse skin and covered with gauze sponge and Bioclusive tape and adhesive tape. Mice were kept in metabolism cages, one animal per cage, and urine samples collected for scintillation counting to determine the quantity of radiolabeled materials being excreted. Parallel studies were conducted simultaneously on non- papain-treated living mice. These studies served as controls against which the treated animals were measured.

[7] = Effect of pH on drug penetration through normal untreated hairless mouse skin (Example 6A); format: in vitro ADME; details: mouse
[8] = tested on: normal untreated hairless mouse skin; experiment: as above; format: in vitro ADME; details: pH 8.0
From the text: A. Effect of pH on drug penetration through normal untreated hairless mouse skin

mouse skin [9] = experiment: Citric acid penetration through mouse skin with two sources of papain (Example 8); format: in vitro ADME; details: FIG. 20, 0.170 mg papain in 0.1 ml of water; Sigma papain not activated
Protocol: Each enzyme preparation contained 0.170 mg of papain dissolved in 0.1 ml of water. One sample of papain was obtained from Allergan. The other was obtained from Sigma Chemical. […] The Sigma Chemical papain was not activated in this experiment.

mouse skin [10] = experiment: Skin damage as measured by bleeding of mouse skin (Example 5); format: in vivo
Protocol: The absolute amounts and relative concentrations of an enzyme preparation containing papain to determine skin damage as measured by bleeding of mouse skin was determined.

[11] = 7 days following papain treatment
[12] = 7 hours exposure, 1 cm^2 section of skin, saturated solution in water, 25° C
[13] = control, no papain treatment, immediate
[14] = immediately following papain treatment
[15] = pH 5.9, Sigma papain 0.093 mg/ml for 24 hours, pH 5.9
[16] = pH 6.6, Sigma papain 0.093 mg/ml for 24 hours, pH 6.6
[17] = pH 7.4, Sigma papain 0.093 mg/ml for 24 hours, pH 7.4
[18] = pH 5.9, read-out: P (permeability)
[19] = pH 6.6, read-out: P (permeability)
[20] = papain greater than 0.093 mg/ml, pH 7.4

Molecule: Lysozyme: 14-C-labeled lysozyme
Percent Recovery (urinary recovery) (Nude Mouse Skin [1]; [11]): 0.0%

Molecule: CC[N+](CC)(CC)CC.[Br-] [TEAB, tetraethylammonium bromide]
transdermal penetration [2, 12]: ~19 mg
penetration through the skin (skin): increases the penetration
increase in absorption in comparison to normal, untreated mouse skin (Hairless mouse skin): 33 fold
Percent Recovery (urinary recovery) (Nude Mouse Skin [1]; mouse, in vivo, topical or ocular): 5.3%
drug penetration through mouse skin (mouse skin [3]): varies directly with the amount of papain used

Molecule: CC(=O)CC(c1ccccc1)c1c(O)c2ccccc2oc1=O (stereo not shown) [Warfarin, warfarin]
Papp ([4]; Sigma papain 0.093 mg/ml for 24 hours, pH 5.9): 1.27 ×10⁻⁶ cm/s
Papp ([4]; Sigma papain 0.093 mg/ml for 24 hours, pH 6.6): 1.2 ×10⁻⁶ cm/s
Papp ([4]; Sigma papain 0.093 mg/ml for 24 hours, pH 7.4): 0.99 ×10⁻⁶ cm/s
Papp ([4]; Sigma papain 0.093 mg/ml for 24 hours, pH 8.0): 1.21 ×10⁻⁶ cm/s

E ([5]; pH 5.9): 22.39
E ([5]; pH 6.6): 17.18
E ([5]; pH 7.4): 7.17
E ([5]; pH 8.0): 7.86
P (permeability) ([5]; mouse, pH 8): 1.65 = 10^-6 cm/sec
Molecule: C=CCc1ccccc1OCC(O)CNC(C)C (stereo not shown) [Alprenolol, alprenolol]

Molecule: C[C@]12CCC(=O)C=C1CC[C@@H]1[C@@H]2[C@@H](O)C[C@@]2(C)[C@H]1CC[C@]2(O)C(=O)CO [Hydrocortisone, hydrocortisone]
transdermal penetration ([2]; 7 hours exposure, 1 cm^2 section of skin, saturated solution in ethanol, 25° C): about 125 μg
Percent Recovery (urinary recovery) (Nude Mouse Skin [6]; [13]): 2.5%
Percent Recovery (urinary recovery) (Nude Mouse Skin [6]; [14]): 24.7%
Percent Recovery (urinary recovery) (Nude Mouse Skin [1]; [11]): 0.6%

Molecule: CC(=O)[C@H]1CC[C@H]2[C@@H]3CCC4=CC(=O)CC[C@]4(C)[C@H]3CC[C@]12C [Progesterone, progesterone]
Papp [4, 15]: 3.6 ×10⁻⁶ cm/s
Papp [4, 16]: 4.39 ×10⁻⁶ cm/s
Papp [4, 17]: 3.41 ×10⁻⁶ cm/s
E ([5]; pH 5.9): 1.25
E ([5]; pH 6.6): 1.50
E ([5]; pH 7.4): 1.17
E ([5]; pH 8.0): 1.17
Papp [7, 18]: 2.88 ×10⁻⁶ cm/s
Papp [7, 19]: 2.92 ×10⁻⁶ cm/s
P (permeability) [8]: 2.47e-07 cm/s

Molecule: Insulin: 14-C-labeled insulin
Percent Recovery (urinary recovery) (Nude Mouse Skin [1]; [11]): 0.0%

transdermal penetration [2]: about 22 mg
Percent Recovery (urinary recovery) (Nude Mouse Skin [6]; [13]): 0.07%
Percent Recovery (urinary recovery) (Nude Mouse Skin [6]; [14]): 1.8%
Percent Recovery (urinary recovery) (Nude Mouse Skin [1]; [11]): 0.1%
Molecule: OC[C@H]1OC(O)[C@H](O)[C@@H](O)[C@@H]1O (stereo partly shown) [Glucose, glucose]

Molecule: CC(=O)OCC[N+](C)(C)C.[Cl-] [Acetylcholine Chloride, acetylcholine chloride]
Papp [4, 15]: 3 ×10⁻⁶ cm/s
Papp [4, 16]: 3.88 ×10⁻⁶ cm/s
Papp [4, 17]: 3.23 ×10⁻⁶ cm/s
Papp ([4]; pH 8, Sigma papain 0.093 mg/ml for 24 hours, pH 8.0): 3.14 ×10⁻⁶ cm/s
E ([5]; pH 5.9): 103.09
E ([5]; pH 6.6): 149.23
E ([5]; pH 7.4): 100.94
E ([5]; pH 8.0): 67.38
Papp [7, 18]: 0.0291 ×10⁻⁶ cm/s
Papp [7, 19]: 0.026 ×10⁻⁶ cm/s
Papp ([7]; pH 7.4, read-out: P (permeability)): 0.032 ×10⁻⁶ cm/s
Papp ([7]; pH 8.0, read-out: P (permeability)): 0.0466 ×10⁻⁶ cm/s

Molecule: Albumin: 14-C-labeled albumin
Percent Recovery (urinary recovery) (Nude Mouse Skin [1]; [11]): 0.0%

Molecule: O=C(O)CC(O)(CC(=O)O)C(=O)O [Citric Acid, citric acid]
transdermal penetration [2, 12]: about 55 mg
penetration through mouse skin (mouse skin [9]): enhanced to a greater extent by the Allergan papain than that of Sigma Chemical
Percent Recovery (urinary recovery) (Nude Mouse Skin [1]; [11]): 0.2%

B1: papain: A preferred enzyme is papain, which is readily available from Allergan of Irvine, Calif., Sigma Chemical Company of St. Louis, Mo., and other sources (protein, UniProt P00784 134-345, looked up)
Papain: IPEYVDWRQKGAVTPVKNQGSCGSCWAFSAVVTIEGIIKIRTGNLNEYSEQELLDCDRRSYGCNGGYPWSALQLVAQYGIHYRNTYPYEGVQRYCRSREKGPYAAKTDGVRQVQPYNEGALLYSIANQPVSVVLEAAGKDFQLYRGGIFVGPCGNKVDHAVAAVGYGPNYILIKNSWGTGWGENGYIRIKRGTGNSYGVCGLYTSSFYPVKN
penetration of drug through the skin (skin; 0.10 molar cysteine with 0.0375 molar EDTA as activating agent): greater penetration of drug through the skin
drug penetration (skin; [20]): greater drug penetration
skin damage (skin; [20]): damages the skin, possibly leading to bleeding
time until bleeding observed (mouse skin [10]; absolute amount of papain: 0.010 mg/0.108 ml): > 24 h
time until bleeding observed (mouse skin [10]; absolute amount of papain: 0.030 mg/0.108 ml): about 5.0 hrs
time until bleeding observed (mouse skin [10]; absolute amount of papain: 0.050 mg/0.180 ml): about 1.5 hrs
time until bleeding observed (mouse skin [10]; absolute amount of papain: 0.070 mg/0.250 ml): about 0.5 hrs
time until bleeding observed (mouse skin [10]; concentration of papain: 0.010 mg/0.108 ml): > 24 h
time until bleeding observed (mouse skin [10]; concentration of papain: 0.020 mg/0.108 ml): > 24 h
time until bleeding observed (mouse skin [10]; concentration of papain: 0.030 mg/0.108 ml): ~24 h
time until bleeding observed (mouse skin [10]; concentration of papain: 0.040 mg/0.108 ml): ~24 h
